The test system of one test is Staphylococcus aureus. The test is described as follows: Antibacterial activity against Staphylococcus aureus ATCC 25923 assessed as bacterial growth inhibition incubated for 18 hrs by microdilution method. It counts as functional. (In general: In broth dilution the organism is exposed to a series of concentrations in liquid medium.)
The test system of another test is Micrococcus luteus. The test is described as follows: Antibacterial activity against Micrococcus luteus ATCC 9341 assessed as bacterial growth inhibition incubated for 18 hrs by microdilution method. It counts as functional.
For test [1], the system named is Staphylococcus epidermidis. The test is described as follows: Antibacterial activity against Staphylococcus epidermidis ATCC 12228 assessed as bacterial growth inhibition incubated for 18 hrs by microdilution method. It counts as functional.
The next test has as its system Bacillus subtilis. The test is described as follows: Antibacterial activity against Bacillus subtilis ATCC 6633 assessed as bacterial growth inhibition incubated for 18 hrs by microdilution method. It counts as functional.
For the next test, the system named is Streptococcus pneumoniae. The test is described as follows: Antibacterial activity against Streptococcus pneumoniae ATCC 49619 assessed as bacterial growth inhibition incubated for 18 hrs by microdilution method. It counts as functional.
The next test deals with Escherichia coli. The test is described as follows: Antibacterial activity against Escherichia coli ATCC 25922 assessed as bacterial growth inhibition incubated for 18 hrs by microdilution method. It counts as functional.
Another test deals with Shigella flexneri. The test is described as follows: Antibacterial activity against Shigella flexneris ATCC 12022 assessed as bacterial growth inhibition incubated for 18 hrs by microdilution method. It counts as functional.
The subject of test [2] is Vesicular stomatitis virus. The test is described as follows: Antiviral activity against GFP transfected VSV infected in MDCK cells assessed as inhibition of viral replication at MOI of 0.1 at 10 uM preincubated for 8 hrs followed by infected with virus incubated for 24 hrs by fluorescence microscope analysis. The settings on record: time 32.0 hrs. The class given is functional, organism-based.

In the next test the test system is Influenza A virus. The test is described as follows: Antiviral activity against PR8-GFP transfected IAV infected in MDCK cells assessed as inhibition of viral replication at MOI of 0.01 at 10 uM preincubated for 8 hrs followed by infected with virus incubated for 24 hrs by fluorescence microscope analysis. The class given is functional, organism-based. The settings on record: time 32.0 hrs.

Test [3] concerns Vesicular stomatitis virus. The test is described as follows: Antiviral activity against GFP transfected VSV infected in MDCK cells assessed as inhibition of viral replication at MOI of 0.1 at 10 uM preincubated for 8 hrs followed by infected with virus incubated for 24 hrs by flow cytometry (reference value: 51.3+/-1.1%). The class given is functional. Further details: scale not given: the % may be the effect or the level left. The settings on record: time 32 hrs. Background: In flow cytometry, cells or beads pass a laser one at a time.

Structures are written as SMILES. Values after ≈ are worked out from the molar mass of the structure shown. Active and inactive are the calls of the source.

`Cc1cc2c(cc1O)[C@]1(C)C[C@@H](O)[C@@H](O)C(C)(C)[C@H]1CC2`: the MIC (in general, the smallest concentration in the dilution series that meets the test's criterion for growth inhibition) is 32 µg/mL (≈ 110 µM) in the test with Staphylococcus aureus; 32 µg/mL (≈ 110 µM) with Micrococcus luteus; 32 µg/mL (≈ 110 µM) in [1]; 32 µg/mL (≈ 110 µM) with Bacillus subtilis; 32 µg/mL (≈ 110 µM) with Streptococcus pneumoniae; greater than 64 µg/mL in the test with Escherichia coli. In addition, the MIC with Shigella flexneri was determined as 32 µg/mL (≈ 110 µM).
Turning to `C=Cc1c(C)c(O)cc2c1CC[C@@H]1C(C)(C)[C@H](O)[C@H](O)C[C@@]21C`, the MIC is 12 µg/mL (≈ 37.9 µM) in the test on Staphylococcus aureus; 16 µg/mL (≈ 50.6 µM) with Micrococcus luteus; 12 µg/mL (≈ 37.9 µM) in test [1]; 12 µg/mL (≈ 37.9 µM) with Bacillus subtilis; 16 µg/mL (≈ 50.6 µM) in the test with Streptococcus pneumoniae; greater than 64 µg/mL in the test on Escherichia coli. In addition, in the test on Shigella flexneri, the MIC was 12 µg/mL (≈ 37.9 µM). Besides, the outcome (in [2]; with Influenza A virus) was Active. Further, in [3], the Activity was determined as 3.4%.
Regarding `C=Cc1ccc2c(c1)CC[C@@H]1C(C)(C)[C@H](O)[C@H](O)C[C@@]21C`, the minimum inhibitory concentration (MIC) (with Staphylococcus aureus; in the test with Micrococcus luteus; in test [1]; with Bacillus subtilis; with Streptococcus pneumoniae; with Escherichia coli) was greater than 64 µg/mL in each case. Besides, the MIC in the test on Shigella flexneri is greater than 64 µg/mL.
For the compound `Cc1ccc2c(c1)CC[C@@H]1C(C)(C)[C@H](O)[C@H](O)C[C@@]21C`, the MIC (in the test with Staphylococcus aureus; in the test with Micrococcus luteus; in [1]; with Bacillus subtilis; with Streptococcus pneumoniae; in the test on Escherichia coli) was greater than 64 µg/mL each time. Besides, the MIC with Shigella flexneri was greater than 64 µg/mL.
As for `CC[C@H]1OC(=O)[C@H](C)[C@@H](O[C@H]2C[C@@](C)(OC)[C@@H](O)[C@H](C)O2)[C@H](C)[C@@H](O[C@@H]2O[C@H](C)C[C@H](N(C)C)[C@H]2O)[C@](C)(OC)C[C@@H](C)C(=O)[C@H](C)[C@@H](O)[C@]1(C)O` [CLARITHROMYCIN], the MIC in the test on Staphylococcus aureus is 0.25 µg/mL (≈ 0.334 µM); in the test with Micrococcus luteus, less than 0.125 µg/mL; in test [1], 0.25 µg/mL (≈ 0.334 µM); with Bacillus subtilis, less than 0.125 µg/mL; in the test with Streptococcus pneumoniae, less than 0.125 µg/mL; with Escherichia coli, 2 µg/mL (≈ 2.67 µM). For the same compound, in the test with Shigella flexneri, the minimum inhibitory concentration (MIC) is less than 0.125 µg/mL.
Take `Cc1cc2c(cc1O)[C@]1(C)C[C@@H](O)[C@@H](O)C(C)(C)[C@H]1CC2=O`: the MIC (in the test on Staphylococcus aureus; with Micrococcus luteus; in [1]; in the test with Bacillus subtilis; with Streptococcus pneumoniae; in the test on Escherichia coli) was greater than 64 µg/mL in each case. For the same compound, in the test on Shigella flexneri, the MIC was greater than 64 µg/mL.
With `Cc1cc2c(cc1O)[C@]1(C)C[C@@H](O)[C@@H](O)C(C)(C)C1=CC2=O`, the MIC (with Staphylococcus aureus; in the test with Micrococcus luteus; in test [1]; with Bacillus subtilis; in the test on Streptococcus pneumoniae; with Escherichia coli) was greater than 64 µg/mL each time. Also, in the test with Shigella flexneri, the minimal inhibitory concentration (MIC) is greater than 64 µg/mL.
Turning to `C=CC1=C(C)C(=O)C=C2[C@]1(O)CC[C@@H]1C(C)(C)[C@H](O)[C@H](O)C[C@@]21C`, the minimal inhibitory concentration (MIC) (in the test with Staphylococcus aureus; with Micrococcus luteus; in [1]; with Bacillus subtilis; in the test with Streptococcus pneumoniae; in the test with Escherichia coli) was greater than 64 µg/mL each time. The MIC in the test with Shigella flexneri was greater than 64 µg/mL.
Regarding `CC1=CC2=CC[C@@H]3C(C)(C)[C@H](O)[C@H](O)C[C@@]3(C)[C@@H]2CC1=O`, the MIC (in the test on Staphylococcus aureus; in the test with Micrococcus luteus; in test [1]; in the test on Bacillus subtilis; with Streptococcus pneumoniae; in the test on Escherichia coli) was greater than 64 µg/mL throughout. In the test on Shigella flexneri, the MIC is greater than 64 µg/mL.

The values above are taken from ChEMBL document CHEMBL5120821, “Diterpenoids from Sauropus spatulifolius Leaves with Antimicrobial Activities” (2022).
